Results: patent US11066414B2, “Cot modulators and methods of use thereof” (Gilead Sciences, Inc., priority 2015, dated 2021)
Read-outs that look alike come from different tables or passages of the source.

Columns and labels:
TNFα = assay: Cot Monocyte TNFα Cell Based Assay
Human Cot = Human Cot (Homo sapiens (Human), UniProt P41279); assay: High Throughput Cot Biochemical Assay; settings: Cot HTRF (TR-FRET) biochemical assay
[1] = Homo sapiens, Monocyte, read-out: EC50 TNF, LPS-stimulated human monocytes, TNFα
[2] = read-out: EC50 TNF, LPS-stimulated human monocytes, TNFα

Sequence of Human Cot (P41279 30-397): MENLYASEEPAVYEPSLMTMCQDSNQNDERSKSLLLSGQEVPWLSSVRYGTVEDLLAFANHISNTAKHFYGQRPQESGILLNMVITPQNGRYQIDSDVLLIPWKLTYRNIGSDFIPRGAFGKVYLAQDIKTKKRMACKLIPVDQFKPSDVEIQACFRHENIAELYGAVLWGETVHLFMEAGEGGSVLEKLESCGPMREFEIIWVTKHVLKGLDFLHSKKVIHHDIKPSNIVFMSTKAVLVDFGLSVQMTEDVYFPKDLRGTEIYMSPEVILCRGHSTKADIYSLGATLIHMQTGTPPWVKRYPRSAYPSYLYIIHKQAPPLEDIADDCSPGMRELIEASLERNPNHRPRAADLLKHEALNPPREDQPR

EC50 (TNFα; [1]) [nM] | IC50 (Human Cot; IC50 HTRF) [nM] | EC50 (TNFα; [2]) [nM] | IC50 (Human Cot; read-out: IC50 HTRF) [nM] | SMILES
379 | 6 |  |  | Cn1cc2c([C@H](Nc3cc(Cl)c4ncc(C#N)c(NCC(C)(C)C)c4c3)c3cn(C4(C(F)F)CC4)nn3)cccc2n1 [Example 497, (S)-8-chloro-6-(((1-(1-(difluoromethyl)-cyclopropyl)-1H-1,2,3-triazol-4-yl)(2-methyl-2H-indazol-4-yl)methyl)amino)-4-(neopentylamino)quinoline-3-carbonitrile]
689 | 19 |  |  | CN1Cc2cccc([C@H](Nc3cc(Cl)c4ncc(C#N)c(NCC(C)(C)C)c4c3)c3cn(C4(C(F)F)CC4)nn3)c2C1=O [Example 498, (S)-8-chloro-6-(((1-(1-(difluoromethyl)-cyclopropyl)-1H-1,2,3-triazol-4-yl)(2-methyl-3-oxoisoindolin-4-yl)methyl)-amino)-4-(neopentylamino)quinoline-3-carbonitrile]
 |  | 321 | 8 | CC(C)(C)CNc1c(C#N)cnc2c(Cl)cc(N[C@H](c3cn(C4(C(F)F)CC4)nn3)c3cccc4[nH]ncc34)cc12 [Example 500, (S)-8-chloro-6-(((1-(1-(difluoromethyl- )cyclopropyl)-1H-1,2,3-triazol-4-yl)(1H-indazol-4-yl)methyl)amino)-4-(neopentylamino)quinoline-3-carbonitrile]
206 | 6 |  |  | Cc1nc(F)ccc1[C@H](Nc1cc(Cl)c2ncc(C#N)c(NCC3(C)CCC3)c2c1)c1cn(C2(C(F)F)CC2)nn1 [Example 502, (S)-8-chloro-6-(((1-(1-(difluoromethyl)-cyclopropyl)-1H-1,2,3-triazol-4-yl)(6-fluoro-2-methylpyridin-3-yl)methyl)-amino)-4-(((1-methylcyclobutyl)methyl)-amino) quinoline-3-carbonitrile]
45 | 2 |  |  | Cc1nc(F)ccc1[C@H](Nc1cc(C#N)c2ncc(C#N)c(NCC(C)(C)C)c2c1)c1cn(C2(CF)CC2)nn1 [Example 503, (S)-6-(((6-fluoro-2-methylpyridin-3-yl)(1-(1-(fluoromethyl)cyclopropyl)-1H-1,2,3-triazol-4-yl)methyl)amino)-4-(neopentylamino)quinoline-3,8-dicarbonitrile]
38 | 1 |  |  | CC(C)(C)CNc1c(C#N)cnc2c(Cl)cc(N[C@H](c3cn(C4CC4)nn3)c3cccc4ccncc34)cc12 [Example 504, (S)-8-chloro-6-(((1-cyclopropyl-1H-1,2,3-triazol-4-yl)(isoquinolin-8-yl)methyl)amino)-4-(neopentylamino)quinoline-3-carbonitrile]
528 | 8 |  |  | CC(C)(C)CNc1c(C#N)cnc2c(Cl)cc(N[C@@H](c3cccnc3)c3cn(C4(C(F)F)CC4)nn3)cc12 [Example 506, (S)-8-chloro-6-(((1-(1-(difluoromethyl)-cyclopropyl)-1H-1,2,3-triazol-4-yl)(pyridin-3-yl)methyl)amino)-4-(neopentylamino)quinoline-3-carbonitrile]
96 | 4 |  |  | CC(C)(C)CNc1c(C#N)cnc2c(Cl)cc(N[C@H](c3cn(C4(C(F)F)CC4)nn3)c3cccc4ncccc34)cc12 [Example 508, (S)-8-chloro-6-(((1-(1-(difluoromethyl)-cyclopropyl)-1H-1,2,3-triazol-4-yl)(quinolin-5-yl)methyl)amino)-4-(neopentylamino)-quinoline-3-carbonitrile]
133 | 6 |  |  | Cc1nc(F)ccc1[C@H](Nc1cc(Cl)c2ncc(C#N)c(NC3CCOC3(C)C)c2c1)c1cn(C2(C(F)F)CC2)nn1 (stereo partly drawn) [Example 511, 8-chloro-6-(((S)-(1-(1-(difluoromethyl)-cyclopropyl)-1H-1,2,3-triazol-4-yl)(6-fluoro-2-methylpyridin-3-yl)methyl)amino)-4-((2,2-dimethyltetrahydrofuran-3-yl)amino)-quinoline-3-carbonitrile]
418 | 10 |  |  | Cc1nc(F)ccc1[C@H](Nc1cc(Cl)c2ncc(C#N)c(NCC(C)(C)CC#N)c2c1)c1cn(C2(C(F)F)CC2)nn1 [Example 512, (S)-8-chloro-4-((3-cyano-2,2-dimethyl-propyl)amino)-6-(((1-(1-(difluoromethyl)-cyclopropyl)-1H-1,2,3-triazol-4-yl)(6-fluoro-2-methylpyridin-3-yl)methyl)amino)quinoline-3-carbonitrile]
154 | 9 |  |  | Cc1nc(F)ccc1[C@H](Nc1cc(F)c2ncc(C#N)c(NCC(C)(C)C)c2c1)c1cn(C2(C(F)(F)F)CC2)nn1 [Example 513, (S)-8-fluoro-6-(((6-fluoro-2-methylpyridin-3-yl)(1-(1-(trifluoromethyl)cyclopropyl)-1H-1,2,3-triazol-4-yl)methyl)amino)-4-(neopentylamino)quinoline-3-carbonitrile]
1000 | 199 |  |  | Cc1nc(F)ccc1[C@H](Nc1cc(Cl)c2ncc(C#N)c(N[C@@H]3CCOC3(C)C)c2c1)c1cn(C2(C(F)F)CC2)nn1 [Example 515, 8-chloro-6-(((S)-(1-(1-(difluoromethyl)-cyclopropyl)-1H-1,2,3-triazol-4-yl)(6-fluoro-2-methylpyridin-3-yl)methyl)amino)-4-(((R)-2,2-dimethyltetrahydro-furan-3-yl)amino)quinoline-3-carbonitrile]
34 | 2 |  |  | Cc1nc(F)ccc1[C@H](Nc1cc(Cl)c2ncc(C#N)c(N[C@H]3CCOC3(C)C)c2c1)c1cn(C2(C(F)F)CC2)nn1 [Example 516, 8-chloro-6-(((S)-(1-(1-(difluoromethyl)-cyclopropyl)-1H-1,2,3-triazol-4-yl)(6-fluoro-2-methylpyridin-3-yl)methyl)amino)-4-(((S)-2,2-dimethyltetrahydrofuran-3-yl)amino)quinoline-3-carbonitrile]
1000 | 3 |  |  | Cc1nc(F)ccc1[C@H](Nc1cc(Cl)c2ncc(C#N)c(NCC(C)(C)C)c2c1)c1cn(C2(C(=O)O)CC2)nn1 [Example 517, (S)-1-(4-(((8-chloro-3-cyano-4-(neopentylamino)quinolin-6-yl)amino)(6-fluoro-2-methylpyridin-3-yl)methyl)-1H-1,2,3-triazol-1-yl)cyclopropane-1-carboxylic acid]
207 | 7 |  |  | [2H][C@](Nc1cc(Cl)c2ncc(C#N)c(NCC(C)(C)C)c2c1)(c1ccc(F)nc1)c1cn(C2(C(F)F)CC2)nn1 [Example 518, (S)-8-chloro-6-(((1-(1-(difluoromethyl)-cyclopropyl)-1H-1,2,3-triazol-4-yl)(6-fluoropyridin-3-yl)methyl-d)amino)-4-(neopentylamino)quinoline-3-carbonitrile]
926 | 123 |  |  | Cn1cnc2c([C@H](Nc3cc(Cl)c4ncc(C#N)c(NCC(C)(C)C)c4c3)c3cn(C4(C(F)(F)F)CC4)nn3)cccc21 [Example 520, (S)-8-chloro-6-(((1-methyl-1H-benzo[d]imidazol-4-yl)(1-(1-(trifluoromethyl)cyclopropyl)-1H-1,2,3-triazol-4-yl)methyl)amino)-4-(neopentylamino)quinoline-3-carbonitrile]
256 | 27 |  |  | Cn1ncc2cccc([C@H](Nc3cc(Cl)c4ncc(C#N)c(NCC(C)(C)C)c4c3)c3cn(C4(C(F)(F)F)CC4)nn3)c21 [Example 521, (S)-8-chloro-6-(((1-methyl-1H-indazol-7-yl)(1-(1-(trifluoromethyl)-cyclopropyl)-1H-1,2,3-triazol-4-yl)methyl)amino)-4-(neopentylamino)-quinoline-3-carbonitrile]
52 | 5 |  |  | Cn1nnc2cccc([C@H](Nc3cc(Cl)c4ncc(C#N)c(NCC(C)(C)C)c4c3)c3cn(C4(C(F)(F)F)CC4)nn3)c21 [Example 522, (S)-8-chloro-6-(((1-methyl-1H-benzo[d] [1,2,3]triazol-7-yl)(1-(1-(trifluoromethyl)-cyclopropyl)-1H-1,2,3-triazol-4-yl)methyl)amino)-4-(neopentylamino)-quinoline-3-carbonitrile]
 |  | 63 | 2 | Cn1cnc2cccc([C@H](Nc3cc(C#N)c4ncc(C#N)c(NCC(C)(C)C)c4c3)c3cn(C4(C(F)F)CC4)nn3)c21 [Example 523]
164 | 4 |  |  | Cn1ncc2c([C@H](Nc3cc(Cl)c4ncc(C#N)c(NCC(C)(C)C)c4c3)c3cn(C4(C)CC4)nn3)cccc21 [Example 525, (S)-8-chloro-6-(((1-methyl-1H-indazol-4-yl)(1-(1-methylcyclopropyl)-1H-1,2,3-triazol-4-yl)methyl)amino)-4-(neopentylamino)quinoline-3-carbonitrile]
78 | 3 |  |  | Cn1nnc2cccc([C@H](Nc3cc(C#N)c4ncc(C#N)c(NCC(C)(C)C)c4c3)c3cn(C4(C(F)(F)F)CC4)nn3)c21 [Example 527, (S)-6-(((1-methyl-1H-benzo[d][1,2,3]triazol-7-yl)(1-(1-(trifluoromethyl)cyclopropyl)-1H-1,2,3-triazol-4-yl)methyl)amino)-4-(neopentylamino)quinoline-3,8-dicarbonitrile]

SMILES | EC50 (TNFα; [1]) [nM] | IC50 (Human Cot; IC50 HTRF) [nM] | EC50 (TNFα; [2]) [nM] | IC50 (Human Cot; read-out: IC50 HTRF) [nM]
[2H]C([2H])(Nc1c(C#N)cnc2c(Cl)cc(N[C@H](c3cn(C4(C(F)F)CC4)nn3)c3ccc(F)nc3C)cc12)C(C)(C)C [Example 501, (S)-8-chloro-6-(((1-(1-(difluoromethyl)-cyclopropyl)-1H-1,2,3-triazol-4-yl)(6-fluoro-2-methylpyridin-3-yl)methyl)amino)-4-((2,2-dimethylpropyl-1,1-d2)amino)-quinoline-3-carbonitrile] | 55 | 3 |  | 
Cc1nc(F)ccc1[C@@H](Nc1cc(Cl)c2ncc(C#N)c(NCC(C)(C)C)c2c1)c1cn(C2(C(F)F)CC2)nn1 [Example 509, (R)-8-chloro-6-(((1-(1-(difluoromethyl)-cyclopropyl)-1H-1,2,3-triazol-4-yl)(6-fluoro-2-methylpyridin-3-yl)methyl)amino)-4-(neopentylamino)quinoline-3-carbonitrile] | 1000 | 267 |  | 
